In patent publication EP0372582A2, “6-Aminoalkyl carbapenems” (Bristol-Myers Squibb Company, priority 1988, dated 1990):
Where two headings read alike, the source gives them in different places.

Key:
[1] = Chemical stability in aqueous solution (half-life); assay type: physicochemical
Experimental: Chemical stability in aqueous solution at pH 7.4 and pH 2.0 is reported as half-life (t1/2). These values are determined by interpolation from a graph of concentration of test substance remaining in solution after storage under selected conditions for various periods of time.

[2] = test system: S. pneu; assay: Protective dose (PD50) in infected animals; assay type: in vivo, mice; design: unit not given beside the values; settings: PO
Text: (§1) The PD₅₀ values are protective doses, or the dose of test compound which secures survival of 50% of the animals of a test group, usually mice, during a designated period of time after being infected with an inoculum of infectious organism which will result in death of all inoculated untreated animals during that test period.

[3] = test system: E. coli; assay: Protective dose (PD50) in infected animals; assay type: in vivo, mice; design: unit not given here; settings: PO
Text: as §1

[4] = Blood concentration parameters after administration to mice; assay type: in vivo; settings: for U.R.: listed after the PO/50 lines, abbreviation not defined; for half-life / AUC / Cmax: mouse, mice; for half-life: blood half-life
Text: […] "Cmax" is the maximum concentration achieved, "t1/2" is the half-life or time for half of the absorbed material to disappear from the blood stream.

[5] = test system: Staph. serum; assay: M.I.C., tube dilution method in Nutrient Broth; assay type: cell-based; settings: unit assumed
Experimental: (§2) The following procedures illustrate the application of the process of this invention to the preparation of a variety of compounds of Formula V. In many instances, data illustrating the biological activity of the substances as antibiotics are presented. […] It is determined by interpolation from a graph of concentration versus number of cells following exposure of the organism to the test compound under growth conditions. Another parameter such as optical density which is proportional to the cell count may be used. In some instances MIC₉₀ values are also given. The latter refers to 90% growth inhibition.

[6] = test system: Staph aur. MR; assay: M.I.C., tube dilution method in Nutrient Broth; assay type: cell-based; settings: unit assumed
Experimental: as §2

[7] = test system: E. coli A15119; assay: M.I.C., tube dilution method in Nutrient Broth; assay type: cell-based; settings: unit assumed
Experimental: as §2

[8] = test system: K. pneu. A9664; assay: M.I.C., tube dilution method in Nutrient Broth; assay type: cell-based; settings: unit assumed
Experimental: as §2

[9] = test system: Ent. clo. A9656; assay: M.I.C., tube dilution method in Nutrient Broth; assay type: cell-based; settings: unit assumed
Experimental: as §2

[10] = test system: Staph. aur. A9537; assay: M.I.C., tube dilution method in Nutrient Broth; assay type: cell-based; settings: unit assumed
Experimental: as §2

[11] = test system: Str. pneu. A9585; assay: M.I.C., tube dilution method in Nutrient Broth; assay type: cell-based; settings: unit assumed
Experimental: as §2

[12] = test system: P. morg. A15153; assay: M.I.C., tube dilution method in Nutrient Broth; assay type: cell-based; settings: unit assumed
Experimental: as §2

[13] = test system: Ent. clo. A9659; assay: M.I.C., tube dilution method in Nutrient Broth; assay type: cell-based; settings: unit assumed
Experimental: as §2

[14] = test system: Ps. aeru. A9843; assay: M.I.C., tube dilution method in Nutrient Broth; assay type: cell-based; settings: unit assumed
Experimental: as §2

[15] = test system: E. coli A20341; assay: M.I.C., tube dilution method in Nutrient Broth; assay type: cell-based; settings: unit assumed
Experimental: as §2

[16] = test system: P. mir. A9900; assay: M.I.C., tube dilution method in Nutrient Broth; assay type: cell-based; settings: unit assumed
Experimental: as §2

[17] = test system: Str. pyo. A9604; assay: M.I.C., tube dilution method in Nutrient Broth; assay type: cell-based; settings: unit assumed
Experimental: as §2

[18] = test system: Str. faec. A20688; assay: M.I.C., tube dilution method in Nutrient Broth; assay type: cell-based; settings: unit assumed
Experimental: as §2

[19] = test system: Ser. mars. A20019; assay: M.I.C., tube dilution method in Nutrient Broth; assay type: cell-based; settings: unit assumed
Experimental: as §2

[20] = test system: Staph aur. Pen+; assay: M.I.C., tube dilution method in Nutrient Broth; assay type: cell-based; settings: unit assumed
Experimental: as §2

[21] = test system: K. pneu. A20468; assay: M.I.C., tube dilution method in Nutrient Broth; assay type: cell-based; settings: unit assumed
Experimental: as §2

[22] = test system: P. vul. A21559; assay: M.I.C., tube dilution method in Nutrient Broth; assay type: cell-based; settings: unit assumed
Experimental: as §2

[23] = test system: P. rett. A22424; assay: M.I.C., tube dilution method in Nutrient Broth; assay type: cell-based; settings: unit assumed
Experimental: as §2

[24] = test system: Ps. aeru. CarbR; assay: M.I.C., tube dilution method in Nutrient Broth; assay type: cell-based; settings: unit assumed
Experimental: as §2

[25] = citric acid buffer, pH 2, 37°C, pH 2.0 citric acid buffer, by hplc, read-out: t1/2, pH 2
[26] = phosphate buffer, pH 7.4, 37°C, pH 7.4 phosphate buffer, by uv, read-out: t1/2, pH 7.4 (converted)

C[C@@H](N)[C@H]1C(=O)N2C(C(=O)O)=C(SCc3ccccn3)[C@H](C)[C@H]12 [Procedure 18, (5S,6R) 6-(1′R-Aminoethyl)-4R-methyl-3-[(pyridin-2-yl)methylthio]-7-oxo-1-azabicyclo[3.2.0]hept-2-ene-2-carboxylic Acid]
half-life [1, 25]: 2 h
half-life [1, 26]: 2.8 h
PD50, S. pneu [2]: 16.5
PD50, E. coli [3]: 11.20
U.R. [4]: 17
half-life ([4]; 20 mg/kg, IM/20): 0.25 h
AUC ([4]; blood, 20 mg/kg, IM/20): 11000 ng·h/mL
Cmax ([4]; blood, 20 mg/kg, IM/20, read-out: Cmax, IM/20): 24000 ng/mL
AUC ([4]; blood, PO, 50 mg/kg): 32000 ng·h/mL
Cmax ([4]; blood, PO, 50 mg/kg, read-out: Cmax, PO/50): 33000 ng/mL
half-life ([4]; PO, 50 mg/kg): 0.4 h

C[C@@H](N)[C@H]1C(=O)N2C(C(=O)O)=C(SCc3cn(C)nn3)[C@H](C)[C@H]12 [Procedure 15]
half-life [1, 25]: 2.4 h
half-life [1, 26]: 3.1 h
PD50, E. coli [3]: 21.80
U.R. [4]: 11
AUC ([4]; in vivo, PO, 50 mg/kg): 25000 ng·h/mL
half-life ([4]; in vivo, PO, 50 mg/kg): 0.4 h
Cmax ([4]; in vivo, PO, 50 mg/kg, read-out: Cmax, PO/50): 29000 ng/mL
M.I.C. Staph. serum [5]: 4 µg/mL
M.I.C. Staph aur. MR [6]: 32 µg/mL
M.I.C. E. coli A15119 [7]: 0.03 µg/mL
M.I.C. K. pneu. A9664 [8]: 0.13 µg/mL
M.I.C. Ent. clo. A9656 [9]: 0.03 µg/mL
M.I.C. Staph. aur. A9537 [10]: 4 µg/mL
M.I.C. Str. pneu. A9585 [11]: 1 µg/mL
M.I.C. P. morg. A15153 [12]: 0.13 µg/mL
M.I.C. Ent. clo. A9659 [13]: 0.13 µg/mL
M.I.C. Ps. aeru. A9843 [14]: 2 µg/mL
M.I.C. E. coli A20341 [15]: 0.03 µg/mL
M.I.C. P. mir. A9900 [16]: 0.03 µg/mL
M.I.C. Str. pyo. A9604 [17]: 1 µg/mL
M.I.C. Str. faec. A20688 [18]: 125 µg/mL
M.I.C. Ser. mars. A20019 [19]: 0.13 µg/mL
M.I.C. Staph aur. Pen+ [20]: 4 µg/mL
M.I.C. K. pneu. A20468 [21]: 0.13 µg/mL
M.I.C. P. vul. A21559 [22]: 0.06 µg/mL
M.I.C. P. rett. A22424 [23]: 4 µg/mL
M.I.C. Ps. aeru. CarbR [24]: 16 µg/mL
